Experimental data published in PMC9147789, “Development and Validation of a Novel LC-MS/MS Method for the Simultaneous Determination of Abemaciclib, Palbociclib, Ribociclib, Anastrozole, Letrozole, and Fulvestrant in Plasma Samples: A Prerequisite for Personalized Breast Cancer Treatment” (Pharmaceuticals, 2022).

Legend:
[1] = LC-MS/MS quantitation of drugs in single-point patient plasma samples (therapeutic drug monitoring); format: in vivo, human
Description: Samples from ten women (ages 35 to 78, median 50.5 years) receiving regular treatment with a combination of a CDK4/6 inhibitor (PAL, RIB or ABE) and endocrine therapy (ANA, LET, FUL or exemestane, EXE) were obtained and analyzed using this LC-MS method. The samples were mostly taken in the elimination phase, during the patients’ regular visit to the hospital before the next dose administration, except in the case of patient 4 (sampling 1 h after dose administration). The aromatase inhibitors and ABE are continuously administered as single daily doses, FUL is a once-monthly intramuscular injection, and the dosing regimen of PAL and RIB involves a week off treatment every 21 days to minimize treatment-induced neutropenia.
The samples were analyzed against freshly prepared calibration curves. The results are listed in Table 7, while the accompanying chromatograms and mass spectra are included in the Supplementary Materials, Section 1, Figures S1–S29.
Healthy and patient blood samples were collected and pre-treated at the University Hospital Centre Zagreb, with signed informed consent. Patients receiving a combination of a CDK4/6 inhibitor and endocrine therapy as regular treatment for at least 4 months were enrolled.
Whole blood was collected in containers with K2-EDTA anticoagulant and centrifuged for 10 min at 1500 g; the supernatant was then withdrawn and stored at −18 °C (blank plasma) or −80 °C (patients’ plasma). Hemolyzed plasma was obtained by briefly freezing a whole blood sample at −18 °C before continuing with the procedure.
(§1) Calibration and QC samples were prepared by diluting 5 µL of the appropriate working solutions of the analytes with 45 µL of blank plasma in 1.5 mL polypropylene centrifuge tubes. In case of patient sample analysis, an aliquot of 50 µL of patient plasma was used. Proteins were precipitated by adding 200 µL of ACN, after which the samples were vortex-mixed for 10 s and centrifuged at 2000 g for 5 min. The resulting supernatant was collected and 200 µL was evaporated to dryness in a vacuum evaporator at room temperature. The dry residue was dissolved in 40 µL of 65% methanol, while 5 µL was injected into the chromatographic system.

[2] = Stability of the analytes in plasma (bench top, autosampler, freeze-thaw, long-term); format: physicochemical, human; conditions: for Stability Bias (%) 1 FT Cycle (30 min, −18–25 °C) / Stability Bias (%) 2 FT Cycles (30 min, −18–25 °C) / Stability Bias (%) 3 FT Cycles (30 min, −18–25 °C) / Stability Bias (%) Long-Term (2 Weeks, −18 °C): plasma; for Stability Bias (%) 1 FT Cycle (30 min, −18–25 °C) / Stability Bias (%) 2 FT Cycles (30 min, −18–25 °C) / Stability Bias (%) 3 FT Cycles (30 min, −18–25 °C) / Stability Bias (%) Long-Term (2 Weeks, −18 °C) / Stability Bias (%) Autosampler (10 h, 10 °C): N = 3; for Stability Bias (%) Autosampler (10 h, 10 °C): processed plasma sample; for Stability Bias (%) Bench Top (2 h, 25 °C): unprocessed plasma, N = 3, vs fresh QC
Description: Stability of the stock and working solutions was determined in the preliminary studies. […] Patient plasma samples were stored long-term at −80 °C. Since adequate stability of plasma samples was proven at −18 °C, it was deemed acceptable at lower temperatures as well. Lower- and higher-concentration QC samples were prepared in triplicate for each condition and time point and were analyzed against QC samples freshly prepared in triplicate.

[3] = Clinical pharmacokinetic evaluation of RIB in one patient, first day of a treatment cycle, non-compartmental analysis; format: in vivo, human; conditions: 600 mg oral dose
Description: Finally, we applied our fully validated method to evaluate the pharmacokinetic disposition of RIB in a patient during the first day of a treatment cycle. The plasma samples were prepared in the same manner as the single-point study samples and quantitated using a freshly prepared calibration curve. No additional dilution or preconcentration was necessary, as all the determined concentrations fell within the validated range. The corresponding data are available in Table S1 of the Supplementary Materials, Section 2 (Results of the pharmacokinetic study).
Pharmacokinetic data were analyzed with the PK solver Excel extension, using the linear trapezoidal model for non-compartmental analysis of plasma data after extravascular input. […] The beginning of the elimination phase was estimated around three hours after dosing. Ribociclib is administered as an instant release tablet dosage form, so no absorption lag was neither expected nor observed.
as §1

[4] = plasma; cited from earlier work
[5] = set-up: method as in PMID 28540640; conditions: plasma; reported PK/PD studies; cited from earlier work
[6] = higher QC level (RIB 2500, ABE 1500, PAL 250, ANA 100, LET 250, FUL 500 ng/mL)
[7] = lower QC level (RIB 62.5, ABE 37.5, PAL 6.2, ANA 2.5, LET 6.25, FUL 12.5 ng/mL)

Structure (SMILES) | Stability Bias (%) 1 FT Cycle (30 min, −18–25 °C) [2, 6] [%] | Stability Bias (%) 2 FT Cycles (30 min, −18–25 °C) [2, 6] [%] | Stability Bias (%) 3 FT Cycles (30 min, −18–25 °C) [2, 6] [%] | Stability Bias (%) Long-Term (2 Weeks, −18 °C) [2, 6] [%] | Stability Bias (%) 1 FT Cycle (30 min, −18–25 °C) [2, 7] [%] | Stability Bias (%) 2 FT Cycles (30 min, −18–25 °C) [2, 7] [%] | Stability Bias (%) 3 FT Cycles (30 min, −18–25 °C) [2, 7] [%] | Stability Bias (%) Long-Term (2 Weeks, −18 °C) [2, 7] [%] | Stability Bias (%) Autosampler (10 h, 10 °C) [2, 6] [%] | Stability Bias (%) Autosampler (10 h, 10 °C) [2, 7] [%] | Stability Bias (%) Bench Top (2 h, 25 °C) [2, 6] [%] | Stability Bias (%) Bench Top (2 h, 25 °C) [2, 7] [%] | Expected literature range Cmin–Cmax [4] | also measured
CN(C)C(=O)c1cc2cnc(Nc3ccc(N4CCNCC4)cn3)nc2n1C1CCCC1 [RIB, ribociclib] | 11.10 | −1.66 | −4.69 | −10.69 | 7.88 | 1.69 | 6.00 | 13.89 | −6.47 | 8.95 | 4.96 | 6.01 | 711–3500 [24] ng/mL | concentration at 24 day ([1]; human, plasma, oral, patient 2, RIB 600 mg daily, sampling day 24 of cycle (off-treatment week)): 57.4 ng/mL; concentration at 16 day ([1]; human, plasma, oral, patient 3, RIB 600 mg daily, sampling day 16 (trough, steady state)): 682 ng/mL; concentration at 1 h ([1]; human, plasma, oral, patient 4, RIB 600 mg daily, sampling day 1, 1 h after dose administration): 1520 ng/mL; concentration at 12 day ([1]; human, plasma, oral, patient 5, RIB 600 mg daily, sampling day 12 (trough, steady state)): 1190 ng/mL; concentration at 28 day ([1]; human, plasma, oral, patient 6, RIB 600 mg daily, sampling day 28 (off-treatment week)): 27.2 ng/mL; concentration at 27 day ([1]; human, plasma, oral, patient 7, RIB 600 mg daily, sampling day 27 (off-treatment week)): 40.7 ng/mL; Elimination constant ([3]; non-compartmental analysis, PK solver): 0.022 h⁻¹; Cmax ([3]; human, first day of treatment cycle, plasma, read-out: Maximum concentration (Cmax)): 1830 ng/mL; half-life ([3]; human, plasma, non-compartmental analysis, PK solver, read-out: Elimination half-life (converted)): 31.6 h; concentration at 0 h ([3]; human, plasma, t 0.00 h, read-out: CRIB (ng/mL) plasma concentration): 945 ng/mL; concentration at 0.25 h ([3]; human, plasma, t 0.25 h, read-out: CRIB (ng/mL) plasma concentration): 1050 ng/mL; concentration at 0.5 h ([3]; human, plasma, t 0.50 h, read-out: CRIB (ng/mL) plasma concentration): 1240 ng/mL; concentration at 1 h ([3]; human, plasma, t 1.00 h, read-out: CRIB (ng/mL) plasma concentration): 1520 ng/mL; concentration at 3 h ([3]; human, plasma, t 3.00 h, read-out: CRIB (ng/mL) plasma concentration): 1830 ng/mL; concentration at 6 h ([3]; human, plasma, t 6.00 h, read-out: CRIB (ng/mL) plasma concentration): 1710 ng/mL; concentration at 12 h ([3]; human, plasma, t 12.00 h, read-out: CRIB (ng/mL) plasma concentration): 1500 ng/mL
CCN1CCN(Cc2ccc(Nc3ncc(F)c(-c4cc(F)c5nc(C)n(C(C)C)c5c4)n3)nc2)CC1 [ABE, abemaciclib] | 9.37 | 5.68 | 1.13 | 3.09 | 13.23 | −7.43 | 14.07 | 7.60 | 14.88 | 11.51 | −0.10 | 9.09 | 102.65–1381 [25] ng/mL | Plasma Concentration ([1]; patient 1, ABE 300 mg daily, continuous, before next dose): 425.79 ng/mL; Minimal threshold concentration for efficacy [5]: 200 ng/mL
